# US5484780A, “Angiotensin II antagonists” (Eli Lilly and Company, priority 1994, dated 1996)
# Values joined by “and” are separate entries in the source; they are usually repeats but may differ in a detail not shown here. Identical values can stand only once.
# Biological target: T1, angiotensin-induced vasoconstriction (rabbit aorta) (Oryctolagus cuniculus, UniProt P34976)
# T1 construct: The thoracic aortas were removed and cleaned of excess fat and connective tissue; from tissue; host or cells: thoracic aorta rings of New Zealand white rabbits (animals from Hazelton)
# T1 sequence (P34976 1-359): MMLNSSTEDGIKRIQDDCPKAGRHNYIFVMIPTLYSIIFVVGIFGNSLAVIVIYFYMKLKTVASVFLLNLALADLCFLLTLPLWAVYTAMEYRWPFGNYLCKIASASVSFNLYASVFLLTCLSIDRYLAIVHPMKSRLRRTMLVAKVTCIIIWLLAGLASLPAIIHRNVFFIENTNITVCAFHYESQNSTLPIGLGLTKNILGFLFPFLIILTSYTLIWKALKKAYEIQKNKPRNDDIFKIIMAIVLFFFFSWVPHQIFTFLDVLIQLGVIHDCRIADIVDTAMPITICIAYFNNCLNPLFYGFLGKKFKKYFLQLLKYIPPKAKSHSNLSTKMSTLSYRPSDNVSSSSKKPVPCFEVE
# Experiment: Rabbit Aorta Test System: antagonism of angiotensin II contraction of aortic rings
# Parameters: species or system New Zealand white rabbits
# Conditions: contraction to AII 10^-10 to 10^-7 M, 30 minutes incubation with compound; pA2 = -log KB
# Experimental: As previously discussed, the compounds of Formula I are potent effective antagonists of angiotensin II. The ability of representative compounds of Formula I to block angiotensin II receptor binding was determined using the adrenal glomerulosa assay. The ability to antagonize angiotensin-induced vasoconstriction was evaluated in the rabbit aorta test system.
# New Zealand white rabbits (Hazelton, 2-3 kg) were sacrificed by cervical dislocation. The thoracic aortas were removed and cleaned of excess fat and connective tissue. Rings of tissue (3 mm wide) were mounted in 10 ml tissue baths between 2 L-shaped stainless steel hooks. The lower hook was attached to a stationary rod. The upper hook was attached to a force displacement transducer (Grass model FT.03). The bath chambers were maintained at 37° C., aerated with 95% 02 /5% C02, and contained physiological solution of the following composition (mM): NaCl, 117; glucose, 5.6; NaH2 PO4, 1.0; MgS04, 0.7; KCl, 5.2; CaCl2, 1.8; NaHCO3, 26; and phentolamine HCl, 0.003.
# Rings were equilibrated for 1 hour with 2 g of tension. During the equilibration period, the tissues were washed by overflow every 15 minutes. Rings were then exposed to 10^-8 M angiotensin II (AII) and were allowed to contract until a steady state was reached. Tissues were then washed every 15 minutes for 1 hour. This was repeated every hour until the AII response stabilized. A cumulative concentration response curve to AII (10^-10 to 10^-7 M) was then obtained. At the conclusion of the concentration response curve, tissues were washed every 2 minutes until baseline tension was reached, then every 15 minutes for 30 minutes. Compounds were added in a volume of 10 μl DMSO and allowed to incubate for 30 minutes before repeating the concentration response curve to AII. Contractions to AII were expressed as a percent of the maximum contraction obtained in the control curve (the first AII concentration response curve). EC50 's (concentration that contracted the tissues to 1/2 the control maximum) for each curve were calculated using a 4 parameter logistics model (NonLin, SAS Institute). Potency data for each compound tested are expressed as the pA2 (defined as-log KB, where KB =[molar concentration of antagonist]/[(EC50 AII with antagonist/EC50 AII without antagonist)-1]).
SMILES,Kb,Rabbit Aorta (pA2)
"CCCCC(C(=O)N1C[C@@H](Oc2ccccc2)C[C@H]1C(=O)O)n1cnc(NC(=O)c2ccccc2S(=O)(=O)O)c1 (single isomer, unassigned) [Example 14, 1-[1-oxo-2-[4-(2-sulfobenzoyl)amino-1H-imidazol-1-yl]hexyl]-4-cis-phenoxy-L-proline]",31.6 nM and 126 nM,–
"CCCCCCC(C(=O)N1C[C@@H](Oc2ccc(OC)cc2)C[C@H]1C(=O)O)n1cnc(NC(=O)c2ccccc2S(=O)(=O)O)c1 (single isomer, unassigned) [Example 18]",0.2 nM,–
"CCCCCCC(C(=O)N1C[C@@H](Oc2ccc(O)cc2)C[C@H]1C(=O)O)n1cnc(NC(=O)c2ccccc2S(=O)(=O)O)c1 (single isomer, unassigned) [Example 19]",1.26 nM,–
"CCCCCCC(C(=O)N1C[C@@H](Oc2ccccc2)C[C@H]1C(=O)O)n1cnc(NC(=O)c2cccc(O)c2C(=O)O)c1 (single isomer, unassigned) [Example 20, 1-[1-oxo-2-[4-(2-carboxy-3-hydroxybenzoyl)amino-1H-imidazol-1-yl]octyl]-4-cis-phenoxy-L-Proline]",3.16 nM,–
"CCCCCCC(C(=O)N1CCC[C@H]1C(=O)O)n1cnc(NC(=O)c2ccccc2S(=O)(=O)O)c1 (single isomer, unassigned) [Example 21, 1-[1-Oxo-2-[4-(2-sulfobenzoyl)amino-1H-imidazol-1-yl]octyl]-L-proline]",63.1 nM and 501 nM,–
"CCCCCCC(C(=O)N1CCNC1=S)n1cnc(NC(=O)c2ccccc2S(=O)(=O)O)c1 (centres unmarked) [Example 6, 2-[[[1-[1-[(2-thioxo-1-imidazolidinyl)carbonyl]-heptyl]-1H-imidazol-4-yl]amino]carbonyl]benzenesulfonic acid]",–,6.3
CCCCCCC(C(=O)N1CCC[C@@H]1C(=O)O)n1cnc(NC(=O)c2ccccc2S(=O)(=O)O)c1 (some centres unmarked) [Example 11],200 nM and 251 nM,–
"CCCCCC(C(=O)N1C[C@@H](Oc2ccccc2)C[C@H]1C(=O)O)n1cnc(NC(=O)c2ccccc2S(=O)(=O)O)c1 (stereo partly drawn) [Example 13, 1-[1-oxo-2-[4-(2-sulfobenzoyl)amino-1H-imidazol-1-yl]heptyl]-4-cis-phenoxy-L-proline]",63.1 nM and 126 nM,–
"O=C(Nc1cn(C(CCCCC(F)(F)F)C(=O)N2C[C@@H](Oc3ccccc3)C[C@H]2C(=O)O)cn1)c1ccccc1S(=O)(=O)O (stereo partly drawn) [Example 16, 1-[1-Oxo-2-[4-(2-sulfobenzoyl)amino-1H-imidazol-1-yl]-7,7,7-trifluoroheptyl]-4-cis-phenoxy-L-proline]",50.1 nM,–
"CCCCCCC(C(=O)N1C[C@@H](Oc2cccnc2)C[C@H]1C(=O)O)n1cnc(NC(=O)c2ccccc2S(=O)(=O)O)c1 (stereo partly drawn) [Example 17, 1-[1-Oxo-2-[4-(2-sulfobenzoyl)amino-1H-imidazol-1-yl]octyl]4-cis-(3-pyridyloxy)-L-proline]",15.8 nM,–
CCCCCC[C@H](C(=O)N1C[C@@H](Oc2ccc(C)cc2)C[C@H]1C(=O)O)n1cnc(NC(=O)c2ccccc2S(=O)(=O)O)c1 [Example 22],0.398 nM,–
CCCCCC[C@H](C(=O)N1C[C@@H](Oc2ccc(CC)cc2)C[C@H]1C(=O)O)n1cnc(NC(=O)c2ccccc2S(=O)(=O)O)c1 [Example 23],1.58 nM,–
CCCCCC[C@H](C(=O)N1C[C@@H](Oc2ccc(C(C)C)cc2)C[C@H]1C(=O)O)n1cnc(NC(=O)c2ccccc2S(=O)(=O)O)c1 [Example 24],25.1 nM,–
CCCCCC[C@H](C(=O)N1C[C@@H](Oc2ccc(C(C)(C)C)cc2)C[C@H]1C(=O)O)n1cnc(NC(=O)c2ccccc2S(=O)(=O)O)c1 [Example 25],126 nM,–
CCCCCC[C@H](C(=O)N1C[C@@H](Oc2ccc(C3CCCC3)cc2)C[C@H]1C(=O)O)n1cnc(NC(=O)c2ccccc2S(=O)(=O)O)c1 [Example 26],2.51 nM,–
CCCCCC[C@H](C(=O)N1C[C@@H](Oc2ccc(-c3ccccc3)cc2)C[C@H]1C(=O)O)n1cnc(NC(=O)c2ccccc2S(=O)(=O)O)c1 [Example 27],10 nM,–
CCCCCC[C@H](C(=O)N1C[C@@H](Oc2ccc(F)cc2)C[C@H]1C(=O)O)n1cnc(NC(=O)c2ccccc2S(=O)(=O)O)c1 [Example 28],–,8.7
CCCCCC[C@H](C(=O)N1C[C@@H](Oc2ccc(C(F)(F)F)cc2)C[C@H]1C(=O)O)n1cnc(NC(=O)c2ccccc2S(=O)(=O)O)c1 [Example 29],–,7.5
CCCCCC[C@H](C(=O)N1C[C@@H](Oc2ccc(SC)cc2)C[C@H]1C(=O)O)n1cnc(NC(=O)c2ccccc2S(=O)(=O)O)c1 [Example 30],0.631 nM,–

SMILES,Kb,Rabbit Aorta (pA2)
CCCCCC[C@H](C(=O)N1C[C@@H](Oc2ccc([S+](C)[O-])cc2)C[C@H]1C(=O)O)n1cnc(NC(=O)c2ccccc2S(=O)(=O)O)c1 (some centres unmarked) [Example 31],–,8.9
CCCCCC[C@H](C(=O)N1C[C@@H](Oc2ccc(S(C)(=O)=O)cc2)C[C@H]1C(=O)O)n1cnc(NC(=O)c2ccccc2S(=O)(=O)O)c1 [Example 32],1.26 nM,–
CCCCCC[C@H](C(=O)N1C[C@@H](Oc2ccc(C(=O)O)cc2)C[C@H]1C(=O)O)n1cnc(NC(=O)c2ccccc2S(=O)(=O)O)c1 [Example 33],1 nM,–
CCCCCC[C@H](C(=O)N1C[C@@H](Oc2ccc(C(N)=O)cc2)C[C@H]1C(=O)O)n1cnc(NC(=O)c2ccccc2S(=O)(=O)O)c1 [Example 34],3.16 nM,–
CCCCCC[C@H](C(=O)N1C[C@@H](Oc2ccc(CO)cc2)C[C@H]1C(=O)O)n1cnc(NC(=O)c2ccccc2S(=O)(=O)O)c1 [Example 35],2 nM,–
CCCCCC[C@H](C(=O)N1C[C@@H](Oc2ccc(CC(=O)O)cc2)C[C@H]1C(=O)O)n1cnc(NC(=O)c2ccccc2S(=O)(=O)O)c1 [Example 36],0.398 nM,–
CCCCCC[C@H](C(=O)N1C[C@@H](Oc2ccc(CCC(=O)O)cc2)C[C@H]1C(=O)O)n1cnc(NC(=O)c2ccccc2S(=O)(=O)O)c1 [Example 37],0.398 nM,–
CCCCCC[C@H](C(=O)N1C[C@@H](Oc2ccc(-n3ccnc3)cc2)C[C@H]1C(=O)O)n1cnc(NC(=O)c2ccccc2S(=O)(=O)O)c1 [Example 38],1.26 nM,–
CCCCCC[C@H](C(=O)N1C[C@@H](Oc2ccc(S(=O)(=O)N3CCCC3)cc2)C[C@H]1C(=O)O)n1cnc(NC(=O)c2ccccc2S(=O)(=O)O)c1 [Example 39],1 nM,–
CCCCCC[C@H](C(=O)N1C[C@@H](Oc2ccc(S(=O)(=O)NC)cc2)C[C@H]1C(=O)O)n1cnc(NC(=O)c2ccccc2S(=O)(=O)O)c1 [Example 40],0.501 nM,–
CCCCCC[C@H](C(=O)N1C[C@@H](Oc2ccc(-c3nc(C(=O)O)co3)cc2)C[C@H]1C(=O)O)n1cnc(NC(=O)c2ccccc2S(=O)(=O)O)c1 [Example 41],0.158 nM,–
CCCCCC[C@H](C(=O)N1C[C@@H](Oc2ccc(CCP(=O)(O)O)cc2)C[C@H]1C(=O)O)n1cnc(NC(=O)c2ccccc2S(=O)(=O)O)c1 [Example 42],1.26 nM,–
CCCCCC[C@H](C(=O)N1C[C@@H](Oc2ccc(OP(=O)(O)O)cc2)C[C@H]1C(=O)O)n1cnc(NC(=O)c2ccccc2S(=O)(=O)O)c1 [Example 43],0.794 nM,–
CCCCCC[C@H](C(=O)N1C[C@@H](Oc2ccc(P(=O)(O)O)cc2)C[C@H]1C(=O)O)n1cnc(NC(=O)c2ccccc2S(=O)(=O)O)c1 [Example 44],5.01 nM,–
CCCCCC[C@H](C(=O)N1C[C@@H](Oc2ccc(-n3cncn3)cc2)C[C@H]1C(=O)O)n1cnc(NC(=O)c2ccccc2S(=O)(=O)O)c1 [Example 45],0.251 nM,–
CCCCCC[C@H](C(=O)N1C[C@@H](Oc2ccc(CC(=O)N(C)CC(=O)O)cc2)C[C@H]1C(=O)O)n1cnc(NC(=O)c2ccccc2S(=O)(=O)O)c1 [Example 46],2 nM,–
CCCCCC[C@H](C(=O)N1C[C@@H](Oc2ccc(CC(=O)N3CCC[C@H]3C(=O)O)cc2)C[C@H]1C(=O)O)n1cnc(NC(=O)c2ccccc2S(=O)(=O)O)c1 [Example 47],1 nM,–
CCCCCC[C@H](C(=O)N1C[C@@H](Oc2ccc(OCC)cc2)C[C@H]1C(=O)O)n1cnc(NC(=O)c2ccccc2S(=O)(=O)O)c1 [Example 48],0.631 nM,–
CCCCCC[C@H](C(=O)N1C[C@@H](Oc2ccc(OC(C)C)cc2)C[C@H]1C(=O)O)n1cnc(NC(=O)c2ccccc2S(=O)(=O)O)c1 [Example 49],2.51 nM,–
